Test results reported in patent US9187471B2, “Pyrido [4,3-b] indole and pyrido [3,4-b] indole derivatives and methods of use” (Medivation Technologies, Inc., priority 2010, dated 2015).

Legend:
[1] = molecular target: T1, human recombinant serotonin (5-Hydroxytryptamine) 5-HT7 receptor (Homo sapiens, UniProt P34969); test: Serotonin 5-HT7 radioligand binding ([3H]LSD); conditions: compound at 0.1 μM; read-out: Inhibition of ligand binding, Serotonin 5-HT7 (percent inhibition of specific binding)
T1 construct: expressed in transfected cells; host or cells: CHO
T1 sequence (P34969 whole entry): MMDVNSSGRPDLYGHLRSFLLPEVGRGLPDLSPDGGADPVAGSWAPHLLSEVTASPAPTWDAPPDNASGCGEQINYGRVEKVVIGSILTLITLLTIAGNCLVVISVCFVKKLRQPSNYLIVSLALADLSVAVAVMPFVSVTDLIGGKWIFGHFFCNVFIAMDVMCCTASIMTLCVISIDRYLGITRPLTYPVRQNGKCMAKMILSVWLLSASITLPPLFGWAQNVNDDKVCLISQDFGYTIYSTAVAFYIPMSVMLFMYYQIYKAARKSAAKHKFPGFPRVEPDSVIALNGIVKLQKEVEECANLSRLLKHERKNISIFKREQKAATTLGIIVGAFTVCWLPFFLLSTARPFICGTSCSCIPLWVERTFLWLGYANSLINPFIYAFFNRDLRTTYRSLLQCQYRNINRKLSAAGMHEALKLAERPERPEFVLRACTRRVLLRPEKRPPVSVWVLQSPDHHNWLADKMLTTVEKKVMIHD
Protocol: Lysergic acid diethylamide (LSD) for 120 min. at 25° C. […] Receptor proteins were filtered and washed, the filters were then counted to determine [^3H]LSD specifically bound.

[2] = molecular target: T2, rat adrenergic α1A receptor (Rattus norvegicus, UniProt P43140); test: Adrenergic α1A radioligand binding ([3H]Prazosin); conditions: read-out: Adrenergic (0.1 μM) a1A, percent inhibition of specific binding; compound at 0.1 μM; 0.25 nM [3H]Prazosin
T2 construct: rat adrenergic α1A receptor obtained from Wistar Rat submaxillary glands; from tissue; host or cells: Wistar rat submaxillary glands
T2 sequence (P43140 1-466): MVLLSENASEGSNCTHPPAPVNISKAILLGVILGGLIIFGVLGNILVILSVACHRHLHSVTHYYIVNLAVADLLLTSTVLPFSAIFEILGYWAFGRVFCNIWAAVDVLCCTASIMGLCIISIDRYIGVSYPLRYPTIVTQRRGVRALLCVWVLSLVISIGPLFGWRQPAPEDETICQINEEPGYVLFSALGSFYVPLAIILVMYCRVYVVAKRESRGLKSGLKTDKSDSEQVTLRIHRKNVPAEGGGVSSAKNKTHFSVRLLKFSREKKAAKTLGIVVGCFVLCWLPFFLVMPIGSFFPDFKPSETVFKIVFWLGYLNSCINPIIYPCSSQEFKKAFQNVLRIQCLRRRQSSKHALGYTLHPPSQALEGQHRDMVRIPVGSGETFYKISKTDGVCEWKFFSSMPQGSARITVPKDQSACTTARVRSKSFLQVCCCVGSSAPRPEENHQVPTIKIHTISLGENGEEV
Outline: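 Wistar rat submaxillary gland receptor in 50 mM Tris-HCl pH 7.4 with 0.5 mM EDTA, incubated with compound and 0.25 nM [3H]Prazosin for 60 min at 25 °C.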

[3] = molecular target: T3, human recombinant serotonin (5-Hydroxytryptamine) 5-HT2A receptor (Homo sapiens, UniProt P28223); test: Serotonin 5-HT2A radioligand binding ([3H]Ketanserin); conditions: compound at 0.1 μM; read-out: Inhibition of ligand binding, Serotonin 5-HT2A (percent inhibition of specific binding)
T3 construct: expressed in transfected cells; host or cells: CHO-K1
T3 sequence (P28223 whole entry): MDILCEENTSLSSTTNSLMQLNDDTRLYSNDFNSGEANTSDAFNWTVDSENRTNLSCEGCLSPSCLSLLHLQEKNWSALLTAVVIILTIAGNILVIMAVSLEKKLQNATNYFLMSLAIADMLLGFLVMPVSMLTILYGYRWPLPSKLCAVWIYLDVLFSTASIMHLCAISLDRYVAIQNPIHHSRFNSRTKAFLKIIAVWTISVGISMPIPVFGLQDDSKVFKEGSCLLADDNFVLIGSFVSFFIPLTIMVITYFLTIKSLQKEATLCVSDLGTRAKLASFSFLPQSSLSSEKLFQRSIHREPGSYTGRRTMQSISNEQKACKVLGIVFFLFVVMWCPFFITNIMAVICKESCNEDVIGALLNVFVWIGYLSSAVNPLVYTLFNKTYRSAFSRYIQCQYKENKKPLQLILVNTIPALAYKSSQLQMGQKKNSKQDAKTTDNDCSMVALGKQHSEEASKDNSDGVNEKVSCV
Protocol: Compounds of the invention were incubated with 0.5 nM [^3H]Ketanserin for 60 min at 25° C. Non-specific binding was estimated in the presence of 1 μM Mianserin. Receptor proteins were filtered and washed, the filters were then counted to determine [^3H]Ketanserin specifically bound.

[4] = molecular target: T4, human recombinant adrenergic α2A receptor (Homo sapiens, UniProt P08913); test: Adrenergic α2A radioligand binding ([3H]MK-912); conditions: read-out: Adrenergic (0.1 μM) a2A, percent inhibition of specific binding; compound at 0.1 μM; 1 nM [3H]MK-912
T4 construct: expressed in transfected cells; host or cells: insect Sf9 cells
T4 sequence (P08913 1-465): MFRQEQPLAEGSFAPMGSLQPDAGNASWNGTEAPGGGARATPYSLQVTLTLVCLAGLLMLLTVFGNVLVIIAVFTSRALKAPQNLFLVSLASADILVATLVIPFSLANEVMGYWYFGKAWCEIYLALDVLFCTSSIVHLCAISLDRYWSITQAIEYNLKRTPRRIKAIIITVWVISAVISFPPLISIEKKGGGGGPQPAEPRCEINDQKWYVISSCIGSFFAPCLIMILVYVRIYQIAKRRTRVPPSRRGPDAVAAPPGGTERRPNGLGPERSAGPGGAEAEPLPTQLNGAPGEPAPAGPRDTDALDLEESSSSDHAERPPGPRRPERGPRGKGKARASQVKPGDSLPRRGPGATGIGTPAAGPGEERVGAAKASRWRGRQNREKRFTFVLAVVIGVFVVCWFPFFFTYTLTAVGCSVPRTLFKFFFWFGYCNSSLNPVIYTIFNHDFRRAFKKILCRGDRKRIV
Protocol: To evaluate in radioligand binding assays the activity of compounds of the invention, human recombinant adrenergic α2A receptor expressed in insect Sf9 cells (Uhlen, S. et al, J. Pharmacol. Exp. Ther. 271:1558, 1994) in a modified Tris-HCl buffer (50 mM Tris-HCl, pH 7.4, 12.5 mM MgCl2, 2 mM EDTA) was used. Compounds of invention were incubated with 1 nM [^3H]MK-912 for 60 min at 25° C. MK-912 is (2S-trans)-1,3,4,5′,6,6′,7,12b-octahydro-1′,3′-dimethyl-spiro[2H-benzofuro[2,3-a]quinolizine-2,4′(1′H)-pyrimidin]-2′(3′H)-one hydrochloride Non-specific binding was estimated in the presence of 10 μM WB-4101 (2-(2,6-Dimethoxyphenoxyethyl)aminomethyl-1,4-benzodioxane hydrochloride). Receptor proteins were filtered and washed, the filters were then counted to determine [^3H]MK-912 specifically bound. […] Compounds of the invention were tested in this biochemical assay and percent inhibition of specific binding was determined.

[5] = molecular target: T5, Adrenergic α1B (Rattus norvegicus, UniProt P15823); test: Adrenergic α1B radioligand binding ([3H]Prazosin); conditions: read-out: Adrenergic (0.1 μM) a1B, percent inhibition of specific binding; compound at 0.1 μM; 0.25 nM [3H]Prazosin; Wistar Rat liver
T5 construct: rat adrenergic α1D receptor obtained from Wistar Rat liver; from tissue; host or cells: Wistar rat liver
T5 sequence (P15823 1-515): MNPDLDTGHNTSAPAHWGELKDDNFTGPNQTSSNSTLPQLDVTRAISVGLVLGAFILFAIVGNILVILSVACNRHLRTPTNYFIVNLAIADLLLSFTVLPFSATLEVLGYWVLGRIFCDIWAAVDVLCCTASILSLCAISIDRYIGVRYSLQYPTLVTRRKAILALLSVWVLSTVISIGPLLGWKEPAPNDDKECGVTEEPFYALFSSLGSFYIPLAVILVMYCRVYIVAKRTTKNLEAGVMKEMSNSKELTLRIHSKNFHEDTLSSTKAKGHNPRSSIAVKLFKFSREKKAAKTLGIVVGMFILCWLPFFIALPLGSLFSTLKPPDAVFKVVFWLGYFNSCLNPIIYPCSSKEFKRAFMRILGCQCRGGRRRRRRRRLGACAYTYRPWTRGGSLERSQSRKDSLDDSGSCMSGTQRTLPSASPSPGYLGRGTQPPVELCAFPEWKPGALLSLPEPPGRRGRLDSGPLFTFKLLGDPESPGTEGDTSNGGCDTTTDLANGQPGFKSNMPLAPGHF
Protocol: To evaluate in radioligand binding assays the activity of compounds of the invention, rat adrenergic α1D receptor obtained from Wistar Rat liver (Garcia-S'ainz, J. et al, Biochem. Biophys. Res. Commun. 186:760, 1992; Michel, A. et al, Br. J. Pharmacol. 98:883, 1989) in a modified Tris-HCl buffer (50 mM Tris-HCl buffer, pH 7.4, 0.5 mM EDTA) was used. Compounds of the invention were incubated with 0.25 nM [^3H]Prazosin for 60 min at 25° C. Non-specific binding was estimated in the presence of 10 μM phentolamine Receptor proteins were filtered and washed, the filters were then counted to determine [^3H]Prazosin specifically bound. […] Compounds of the invention were tested in this biochemical assay and percent inhibition of specific binding was determined.

| Structure (SMILES) | inhibition at 0.1 µM [1] [%] | inhibition at 0.1 µM [2] [%] | inhibition at 0.1 µM [3] [%] | inhibition at 0.1 µM [4] [%] | inhibition at 0.1 µM [5] [%] |
| --- | --- | --- | --- | --- | --- |
| Cc1ccc2c(c1)c1c(n2-c2ccccc2-c2cnn(C)c2)CCN(C)C1 [Compound No. 86, 2,8-dimethyl-5-(2-(1-methyl-1H-pyrazol-4-yl)phenyl)-2,3,4,5-tetrahydro-1H-pyrido[4,3-b]indole] | 53 | 17 | 94 | – | – |
| Cc1ccc2c(c1)c1c(n2-c2ccccc2-c2cccn2C)CCN(C)C1 [Compound No. 100, 2,8-dimethyl-5-(2-(1-methyl-1H-pyrrol-2-yl)phenyl)-2,3,4,5-tetrahydro-1H-pyrido[4,3-b]indole] | 48 | 46 | 74 | 95 | – |
| Cc1ccc2c(c1)c1c(n2-c2ccccc2-c2cc3ccccc3s2)CCN(C)C1 [Compound No. 103, 5-(2-(benzo[b]thiophen-2-yl)phenyl)-2,8-dimethyl-2,3,4,5-tetrahydro-1H-pyrido[4,3-b]indole] | 39 | 44 | 24 | – | – |
| Cc1ccc2c(c1)c1c(n2-c2ccccc2-c2cccc3[nH]ncc23)CCN(C)C1 [Compound No. 105, 5-(2-(1H-indazol-4-yl)phenyl)-2,8-dimethyl-2,3,4,5-tetrahydro-1H-pyrido[4,3-b]indole] | 54 | 55 | 94 | – | – |
| Cc1ccc2c(c1)c1c(n2-c2cnc3ccccc3c2)CCN(C)C1 [Compound No. 88, 2,8-dimethyl-5-quinolin-3-yl-2,3,4,5-tetrahydro-1H-pyrido[4,3-b]indole] | 13 | 20 | 93 | – | – |
| Cc1ccc2c(c1)c1c(n2-c2ccccc2-c2cncc3ccccc23)CCN(C)C1 [Compound No. 87, 5-(2-(isoquinolin-4-yl)phenyl)-2,8-dimethyl-2,3,4,5-tetrahydro-1H-pyrido[4,3-b]indole] | 14 | 8 | 70 | – | – |
| Cc1ccc2c(c1)c1c(n2-c2ccccc2-c2cn[nH]c2)CCN(C)C1 [Compound No. 104, 5-(2-(1H-pyrazol-4-yl)phenyl)-2,8-dimethyl-2,3,4,5-tetrahydro-1H-pyrido[4,3-b]indole] | 27 | 4 | 57 | 14 | 9 |
| Cc1ccc2c(c1)c1c(n2-c2ccccc2-c2sccc2C)CCN(C)C1 [Compound No. 102, 2,8-dimethyl-5-(2-(3-methylthiophen-2-yl)phenyl)-2,3,4,5-tetrahydro-1H-pyrido[4,3-b]indole] | 34 | 28 | 92 | – | – |
